How the values were obtained:
[1] = Zeta potential assay of LNPs; assay type: physicochemical; details: LNP, hEPO mRNA, Lipid:Cholesterol:DSPC:PEG-2k 50:38.5:10:1.5, N:P 6
Text: (§1) Various lipid nanoparticle compositions comprising a nucleic acid payload are characterized by a variety of methods. For example, dynamic light scattering (DLS) is used to determine particle sizes (Wyatt Dynapro Platereader 111). In addition, instruments such as the Zetasizer Nano ZS (Malvern Instruments Ltd) are used to measure multiple physical properties of a lipid nanoparticle composition, such as particle size, polydispersity index (PDI), and zeta potential. Fluorescence-based assays are used to determine the efficiencies of nucleic acid encapsulation in the lipid nanoparticles. Fluorescence-based assays are used to determine the “apparent pKa” of the lipid nanoparticles. Both fluorescence assays are evaluated on a Varioskanlux plate reader (ThermoScientific).
A Zetasizer Nano ZS (Malvern Instruments Ltd) is used to determine the zeta potential of the nanoparticle compositions. Briefly, a 5 uL aliquot of an approximately 0.5 mg mRNA/mL sample is diluted into 800 uL 0.1×PBS. This sample is then transferred to a disposable conducting cuvette and the zeta potential is measured.

[2] = Encapsulation efficiency, fluorescence based Ribogreen assay; assay type: physicochemical; details: LNP, hEPO mRNA, Lipid:Cholesterol:DSPC:PEG-2k 50:38.5:10:1.5, N:P 6
Procedure: For lipid nanoparticle formulations containing an RNA, a QUANTIT™ RIBOGREEN® RNA assay (Invitrogen Corporation) is used to evaluate the encapsulation of RNA within the lipid nanoparticle formulation.
The samples are diluted to ˜10 ug/ml in TE buffer. In a 96 well plate, 50 ul of the diluted sample is added to 50 uL TE buffer in duplicates and 20 uL of diluted sample is added to 80 uL Triton X buffer (2% triton in TE buffer) in duplicates. The plate is incubated for 10 minutes at room temperature. Next, RIBOGREEN® is diluted 1:200 in TE BUFFER, and 100 uL is added to each sample well. The fluorescence intensity is measured using a fluorescence plate reader (e.g., Varioskanlux, ThermoScientific) at an excitation wavelength of about 480 nm and an emission wavelength of about 520 nm. The encapsulation efficiency can be determined by using the percentage ratio of non-encapsulated RNA (TE sample) over the total RNA (TX sample), then subtracting from 100 to find the percentage of encapsulated RNA amount.
(§2) LNPs were characterized by dynamic light scattering (DLS) measurement for measuring its hydrodynamic radius and polydispersity index (PDI). Encapsulation efficiency (EE %) and total RNA concentration were quantitated using a fluorescence based Ribogreen assay.

[3] = Apparent pKa of LNPs (TNS assay); assay type: physicochemical; details: LNP, hEPO mRNA, Lipid:Cholesterol:DSPC:PEG-2k 50:38.5:10:1.5, N:P 6
Text: as §1
The apparent pKa of lipid nanoparticle composition is measured using a 6-(p-Toluidino)-2-naphthalenesulfonic acid (TNS) assay. Briefly, lipid nanoparticles (10 uL of approximately 0.5 mg mRNA/mL) and TNS probe (40 uL of 1 mM stock) are added to 750 uL of TNS buffer (25 mM citric acid, 20 mM sodium phosphate, 150 mM NaCl, and 20 mM ammonium acetate), at a pH ranging from 2 to 10. 20 uL of each sample are added to 80 uL of buffer at each pH in a 96-well plate. The plate is incubated for 10 minutes, and the fluorescence signal is measured by means of a spectrofluorometer (Varioskanlux, ThermoScientific) with excitation/emission settings of λex=321 nm, and λem=445 nm. The apparent pKa of the nanoparticle composition is determined by deriving the pH at which 50% of the pH 2 fluorescent signal is present. All datapoints are normalized to the fluorescent signal at pH 2.

[4] = LNP size and polydispersity index by dynamic light scattering (DLS); assay type: physicochemical; details: hEPO mRNA, Lipid:Cholesterol:DSPC:PEG-2k 50:38.5:10:1.5, N:P 6
Text: as §1
After formulation and processing of the lipid nanoparticle compositions, the Z-average size of lipid nanoparticle composition are assayed by dynamic light scattering (DLS) (e.g., using a Wyatt Dynapro Platereader III or Malvern Zetasizer ZS). Briefly, an aliquot of 2 uL of the processed nanoparticle composition mixture (at an RNA concentration of approximately 0.5 mg/mL) is diluted into 50 uL phosphate buffered saline (0.1×PBS) and loaded into a 384 well plate. The sample is then analyzed to determine nanoparticle size.
as §2

C57BL/6 female mice = assay: In vivo hEPO expression of hEPO mRNA LNPs, serum ELISA; details: LNP 50:38.5:10:1.5, N:P 6, 0.2 mg/kg hEPO mRNA, tail vein injection, blood serum 6 h post-administration
Procedure: In this example, messenger RNA molecules encoding hEPO proteins were formulated in lipid nanoparticles for delivery in vivo. The lipid nanoparticle (LNP) formulations comprised of a lipid composition of ionizable lipid: helper lipid: cholesterol. DMG-PEG2k at 50:10:38.5:1.5 mol %. The lipid mixture in ethanol was mixed with hEPO mRNA in RNA acidifying buffer (10 mM citrate, pH 4) at an ionizable-lipid-nitrogen-to-RNA-phosphate ratio (N:P) of 6 using a microfluidic device (Precision NanoSystems, Inc.) at a combined flow rate of 10 mL/min (7.5 mL/min for aqueous buffer, RNA and 2.5 mL/min for ethanol, lipid mix). The resulting particles were neutralized by buffer exchange into Dulbecco's phosphate buffer solution via PD-10 desalting column. The neutralized particles were concentrated using 100 kDa AMICON® Ultra centrifugal filters and sterile filtered using 0.2 um syringe filters. Samples were then characterized and diluted as needed (3 replicates).
The in vivo studies were performed in C57BL/6 female mice at 6 to 8 weeks weighing in at approximately 20 g. The LNPs formulated with different ionizable lipids at 0.2 mg/kg of hEPO mRNA were administered by tail vein injection and animals were euthanized at 6 h post-administration for blood serum sample collection. The hEPO levels from the samples were analyzed and cross-compared by enzyme-linked immunoassay (ELISA) according to manufacturer's protocol. The hEPO expression levels for each of the LNPs was compared to a control LNP comprising SM102 (DC Chemicals Cat. No. DC52025). (FIG. 1).

| Zeta [1] [mV] | EE [2] [%] | pKa [3] | PDI [4] | Size [4] [nm] | Structure (SMILES) | hEPO (C57BL/6 female mice) [ng/mL] |
| --- | --- | --- | --- | --- | --- | --- |
| −14.1 | 98.8 | 6.1 | 0.169 | 75.1 | CCCCCCCCC(CC)OC(=O)CCCCCCCN(CCCCCCCC(=O)OC(CCCCCCCC)CCCCCCCC)CCCNc1nnc(N)[nH]1 (stereo not drawn) [Lipid 17] | 6.59 |
| −14.5 | 95.2 | 6.6 | 0.162 | 58.6 | CCCCCCCCC(CC)OC(=O)CCCCCCCN(CCCCCCCC(=O)OC(CCCCCCCC)CCCCCCCC)CCCNS(=O)(=O)N(C)C (stereo not drawn) [Lipid 20] | 361.46 |
